Tests used:
human 5HT2C receptor = molecular target: T1, human 5HT2C receptor (Homo sapiens, UniProt P28335); experiment: Intracellular IP3 (IP) accumulation assay, 5HT2C; format: cell-based; conditions: HEK293 cells transfected with human 5HT2C receptor cDNA
T1 construct: expressed in transfected cells; host or cells: HEK293
T1 sequence (P28335 33-458): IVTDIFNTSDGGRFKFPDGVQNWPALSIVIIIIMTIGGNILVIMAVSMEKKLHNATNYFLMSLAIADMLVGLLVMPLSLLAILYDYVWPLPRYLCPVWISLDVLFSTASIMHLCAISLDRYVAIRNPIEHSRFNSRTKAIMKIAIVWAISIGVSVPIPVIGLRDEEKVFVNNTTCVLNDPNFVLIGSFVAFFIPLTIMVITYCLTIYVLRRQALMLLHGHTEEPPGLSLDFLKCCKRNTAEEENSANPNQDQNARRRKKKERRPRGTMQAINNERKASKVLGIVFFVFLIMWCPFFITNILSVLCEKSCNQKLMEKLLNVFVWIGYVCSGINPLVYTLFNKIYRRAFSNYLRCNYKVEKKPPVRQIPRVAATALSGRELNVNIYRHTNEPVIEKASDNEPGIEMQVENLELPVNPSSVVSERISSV
Experimental: HEK293 cells were transfected in 15 cm sterile dishes with or without (control) 16 ug of human 5HT2C receptor cDNA [for example see, Saltzman, A. G., et al. Biochem. Biophys. Res. Commun. 181, 1469-1478 (1991)] using 25 ul of lipofectamine. Cells were then incubated for 3-4 hours at 37° C./5% CO2 and then transfection media was removed and replaced with 100 ul of DMEM. Cells were then plated onto 100 cm sterile dishes. The next day cells were plated into 96 well PDL microtiter plates at a density of 55K/0.2 mL. Six hours latter, media was exchanged with [^3H]inositol (0.25 uCi/well) in inositol free DMEM and plates were incubated at 37° C./5% CO2 overnight. The next day, wells were aspirated and 200 ul of DMEM containing test compound, 10 uM pargyline, and 10 mM LiCl was added to appropriate wells. Plates were then incubated at 37° C./5% CO2 for three hours followed aspiration and by addition of fresh ice cold stop solution (1M KOH, 19 mM Na-borate, 3.8 mM EDTA) to each well. Plates were kept on ice for 5-10 min and the wells were neutralized by addition of 200 ul of fresh ice cold neutralization solution (7.5% HCl). Plates were then frozen until further processing is desired. The lysate was then transferred into 1.5 mL Eppendorf tubes and 1 mL of chloroform/methanol (1:2) was added/tube. […]

5HT2A receptor = 5HT2A receptor (Homo sapiens, UniProt P28223); experiment: EC50 against the 5HT2A receptor (selectivity); format: cell-based
5HT2B receptor = 5HT2B receptor (Homo sapiens, UniProt P41595); experiment: Activity against the 5HT2B receptor (selectivity); format: cell-based
guinea pigs = conditions: repeat administration; cited from earlier work

5HT2B receptor, sequence (P41595 whole entry): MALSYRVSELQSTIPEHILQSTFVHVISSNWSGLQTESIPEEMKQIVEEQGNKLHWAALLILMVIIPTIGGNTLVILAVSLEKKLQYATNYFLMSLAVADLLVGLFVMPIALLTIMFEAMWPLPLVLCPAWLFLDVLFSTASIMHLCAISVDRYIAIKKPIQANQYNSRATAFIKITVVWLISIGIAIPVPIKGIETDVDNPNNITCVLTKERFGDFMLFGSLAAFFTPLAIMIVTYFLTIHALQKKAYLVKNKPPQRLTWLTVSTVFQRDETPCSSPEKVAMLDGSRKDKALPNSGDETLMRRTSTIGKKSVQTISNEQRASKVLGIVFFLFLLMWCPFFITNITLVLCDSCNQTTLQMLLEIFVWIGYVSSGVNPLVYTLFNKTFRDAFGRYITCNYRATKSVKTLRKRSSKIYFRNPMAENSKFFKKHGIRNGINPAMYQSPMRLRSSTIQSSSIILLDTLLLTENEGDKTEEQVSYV
5HT2A receptor, sequence (P28223 whole entry): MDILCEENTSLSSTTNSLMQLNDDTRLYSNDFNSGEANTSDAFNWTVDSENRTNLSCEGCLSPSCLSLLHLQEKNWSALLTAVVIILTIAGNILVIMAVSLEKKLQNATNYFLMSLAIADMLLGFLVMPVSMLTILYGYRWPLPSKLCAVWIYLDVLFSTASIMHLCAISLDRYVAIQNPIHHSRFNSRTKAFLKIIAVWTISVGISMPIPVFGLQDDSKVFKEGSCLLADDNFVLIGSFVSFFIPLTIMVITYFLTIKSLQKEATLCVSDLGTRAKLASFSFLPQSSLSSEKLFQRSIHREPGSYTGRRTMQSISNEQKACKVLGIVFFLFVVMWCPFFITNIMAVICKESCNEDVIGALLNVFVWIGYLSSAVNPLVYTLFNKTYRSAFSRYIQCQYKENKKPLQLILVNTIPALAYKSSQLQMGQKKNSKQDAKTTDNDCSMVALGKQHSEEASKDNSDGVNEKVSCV

| Structure (SMILES) | EC50 (human 5HT2C receptor) [nM] | EC50 (5HT2A receptor) [nM] | activity against the 5HT2B receptor (5HT2B receptor) | amyloid precursor protein (APPs) secretion (guinea pigs) | levels of Aβ production in vivo (guinea pigs) |
| --- | --- | --- | --- | --- | --- |
| C[C@@H]1CNCCN1c1cc(F)cc(-c2ccsc2)c1 [Compound 1] | 2 |  |  |  |  |
| C[C@@H]1CNCCN1c1cccc(-c2ccccc2)c1F [Compound 10, (R)-1-(2-Fluoro-biphenyl-3-yl)-2-methyl-piperazine] | 5 | ~1700 | essentially inactive |  |  |
| C[C@H](N)Cc1cccc(C(F)(F)F)c1 [DEXNOR, dexnorfenfluramine] |  |  |  | stimulated | reducing |
